PubChem BioAssay AID652188 (Johns Hopkins Ion Channel Center, 2013)
Calls of active or inactive are those of the source.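 Rule for the calls: active = peak TASK1 channel inhibition over 30% at some tested dose, plus a fitted dose response curve; inactive = no inhibition at any dose, or no curve fitted.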

test system: not listed separately; experiment: nonspecific flux block, untransfected cells – cell-based, FluxOR thallium flux, CRC, counter-screen for TASK1 inhibitor project, SAR follow-up (AID 652188); settings: CHO parental cells, FluxOR thallium flux counter-screen; at 30 µM (top of the series)

Question: With `O=C(Nc1cccc(NC(=O)c2cccc(F)c2)c1)c1ccccc1` as the compound, how does the flux ratio, lower = inhibition read?
Answer: 0.326 (inactive)

Question: With `COc1ccccc1C(=O)Nc1cc(NC(=O)c2ccccc2C(C)C)ccc1F` as the compound, how does the flux ratio, lower = inhibition read?
Answer: 0.298 (inactive)

Question: For `COc1ccccc1C(=O)Nc1cc(NC(=O)c2cccc(C)c2)ccc1F`, which flux ratio, lower = inhibition is on record?
Answer: 0.306 (inactive)

Question: With `COc1ccc(CC(=O)NCc2ccccc2-c2ccccc2C(=O)NCc2ccc(F)cc2F)cc1` as the compound, how does the flux ratio, lower = inhibition read?
Answer: 0.295 (inactive)

Question: Which flux ratio, lower = inhibition does the source give for `Cc1cccc(C(=O)Nc2cccc(NC(=O)c3cccc(F)c3)c2)c1` here?
Answer: 0.313 (inactive)

Question: With `Cc1cccc(C(=O)Nc2cccc(NC(=O)c3cccc(C(F)(F)F)c3)c2)c1` as the compound, how does the flux ratio, lower = inhibition read?
Answer: 0.304 (inactive)

Question: For `Cc1cccc(C(=O)Nc2cccc(NC(=O)c3cccs3)c2)c1`, which flux ratio, lower = inhibition is on record?
Answer: 0.334 (inactive)

Question: Which flux ratio, lower = inhibition does the source give for `COc1c(F)cccc1C(=O)Nc1cccc(NC(=O)c2cccc(C)c2)c1` here?
Answer: 0.317 (inactive)

Question: Which flux ratio, lower = inhibition does the source give for `Cc1cccc(C(=O)Nc2cccc(NC(=O)c3ccccc3)c2)c1` here?
Answer: 0.319 (inactive)

Question: Which flux ratio, lower = inhibition does the source give for `COc1ccccc1C(=O)Nc1cccc(NC(=O)c2cccc(C)c2)c1` here?
Answer: 0.322 (inactive)

Question: Which flux ratio, lower = inhibition does the source give for `COc1cnccc1C(=O)Nc1cccc(NC(=O)c2cccc(C)c2)c1` here?
Answer: 0.339 (inactive)

Question: With `COc1ccc(F)cc1C(=O)Nc1cccc(NC(=O)c2cccc(C)c2)c1` as the compound, how does the flux ratio, lower = inhibition read?
Answer: 0.311 (inactive)

Question: With `Cc1cccc(C(=O)Nc2cccc(NC(=O)c3ccncc3)c2)c1` as the compound, how does the flux ratio, lower = inhibition read?
Answer: 0.32 (inactive)

Question: With `CCCC(=O)C1CCN(c2ncnc3c2CN(C(=O)c2ccc(-c4ccccc4)cc2)CC3)CC1` as the compound, how does the flux ratio, lower = inhibition read?
Answer: 0.302 (inactive)

test system: CHO parental cells, FluxOR thallium flux counter-screen; experiment: as above; settings: not given

Question: With `O=C(Nc1cccc(NC(=O)c2ccccc2)c1)c1ccccc1` as the compound, how does the IC50 read?
Answer: 240 nM

Question: For `CCOc1ccccc1C(=O)Nc1cccc(NC(=O)c2cccc(C)c2)c1`, which IC50 is on record?
Answer: 1240 nM
